Measurements reported in patent US5521156A, “Cyclic neurokinin A antagonists” (priority 1994, dated 1996).
Where a SMILES comes first, the peptide text is derived from it. [ ]: non-standard residue; d: D form.

Tests used:
[1] = molecular target: T1, NK-1 receptor (Cavia porcellus, UniProt P30547); assay: NK-1 receptor binding (125I-Bolton-Hunter substance P) in guinea pig lung membranes; details: 0.1 nM 125I-Bolton-Hunter Lys-3 substance P, mean ± S.E.M.
T1 construct: tissue Keystone Biologicals, Cleveland, OH; host or cells: guinea pig lung
Protocol: (§1) Receptor binding assays were performed in crude tissue membranes. The NK-1 receptor binding affinity of proposed tachykinin antagonists was evaluated in guinea pig lungs (Keystone Biologicals, Cleveland, OH, kept frozen at -80° C. until use). Affinity for the NK-2 receptor was evaluated in HSKR-1 cells which are mouse 3T3 fibroblasts expressing the human jejunal NK-2 receptor. Tissues or cells were homogenized with a Polytron in 15 volumes of 50 mM Tris-HCl buffer (pH 7.4, 4° C.) containing 120 mM NaCl and 5 mM KCl and centrifuged at 48,000×g for 12 min. at 4° C. The pellet was resuspended in 15 volumes of 50 mM Tris-HCl buffer containing 10 mM EDTA and 300 mM KCl then set on ice for 30 min. The suspension was cetrifuged as above and the pellet washed by resuspension and cetrifugation two additional times in 50 mM Tris-HCl buffer (pH 7.4, 4° C.). The final pellet was resuspended in a concentration of 20 mg/ml in incubation buffer then kept at room temperature for at least 15 min prior to use. Receptor binding was initiated by addition of 250 μl membrane preparation (final protein concentration; lungs=286 μg/tube, HSKR-1 cells=100 μg/tube) in duplicate to 0.1 nM of the following radioligands: for NK-1 receptor assays, ^125 I-Bolton-Hunter Lys-3 labeled substance P (New England Nuclear, specific activity, 2200 Ci/mmol); for NK-2 receptor assays, ^125 iodohistidyl-1-neurokinin A (Amersham, specific activity, 2000 Ci/mmol) in a final volume of 500 μl of buffer containing 50 mM Tris-HCl (pH 7.4 at room temperature), 0.1% bovine serum albumin, 2 mM MnCl2, 40 μg/ml bacitracin, 4 μg/ml leupeptin and chymostatin, 1 μM thiorphan and various doses of the tachykinin antagonists. Incubations were performed at room temperature for 90 min (NK-1 receptor assays) or 2 hr (NK-2 receptor assays); binding was terminated by addition of 50 mM Tris-HCl buffer (pH 7.4, 4° C.) and filtration under vacuum through GF/B filters presoaked with 0.1% polyethyleneimine (NK-1 receptor assays) or 0.5% bovine serum albumin (NK-2 receptor assays). Nonspecific binding was defined as binding in the presence of 1 μM substance P (NK-1 receptor assays) or neurokinin A (NK-2 receptor assays) (Peptides International, Inc., Louisville, Ky.). Specific binding was calculated by subtracting nonspecific binding from total binding and corresponded to 70-90% of total binding. Data were analyzed and IC50 values generated by nonlinear regression using an iterative curve fitting program (GraphPAD Inplot, San Diego, Calif.). Protein was determined by the method of Lowry.

[2] = test system: mice; details: mouse, in vivo
Protocol: The analgesic potential of the compounds of this invention was measured using a modification of the method of Whittle (Br. J. Pharmacol. 22:2246, 1964). Groups of 5-10 male mice received an intrathecal injection of cyclo[Tyr-trp-Leu-Arg-Trp-Gly] SEQ. ID 6 (0.013-4μg) or ethanol/saline vehicle in a volume of 5 μl. After 5 minutes, mice received an intraperitoneal injection of 0.4 ml acetic acid (0.25% v/v). […] To calculate an ED50 (dose producing analgesia in 50% of the mice), four or more doses of compound were tested and the results subjected to quantal analysis with an appropriate computer program.

[3] = molecular target: T2, human jejunal NK-2 receptor (Homo sapiens, UniProt P21452); assay: NK-2 receptor binding (125I-neurokinin A) in HSKR-1 cell membranes; details: HSKR-1 cells (mouse 3T3 fibroblasts expressing human jejunal NK-2 receptor); 0.1 nM 125I-iodohistidyl-1-neurokinin A; mean ± S.E.M.
T2 construct: expressed in transfected cells; host or cells: HSKR-1 (mouse 3T3 fibroblasts)
T2 sequence (P21452 1-398): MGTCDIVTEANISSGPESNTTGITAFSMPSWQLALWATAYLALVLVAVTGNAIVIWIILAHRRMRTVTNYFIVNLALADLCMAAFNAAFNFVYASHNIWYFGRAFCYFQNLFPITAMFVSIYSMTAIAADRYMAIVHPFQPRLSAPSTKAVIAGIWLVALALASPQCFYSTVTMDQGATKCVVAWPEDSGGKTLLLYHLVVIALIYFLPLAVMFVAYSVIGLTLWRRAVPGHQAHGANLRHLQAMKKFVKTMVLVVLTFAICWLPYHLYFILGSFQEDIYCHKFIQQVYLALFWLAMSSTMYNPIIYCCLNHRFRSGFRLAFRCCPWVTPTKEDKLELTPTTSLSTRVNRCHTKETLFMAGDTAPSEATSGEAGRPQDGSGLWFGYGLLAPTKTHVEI
Protocol: as §1

T1 sequence (P30547 whole entry): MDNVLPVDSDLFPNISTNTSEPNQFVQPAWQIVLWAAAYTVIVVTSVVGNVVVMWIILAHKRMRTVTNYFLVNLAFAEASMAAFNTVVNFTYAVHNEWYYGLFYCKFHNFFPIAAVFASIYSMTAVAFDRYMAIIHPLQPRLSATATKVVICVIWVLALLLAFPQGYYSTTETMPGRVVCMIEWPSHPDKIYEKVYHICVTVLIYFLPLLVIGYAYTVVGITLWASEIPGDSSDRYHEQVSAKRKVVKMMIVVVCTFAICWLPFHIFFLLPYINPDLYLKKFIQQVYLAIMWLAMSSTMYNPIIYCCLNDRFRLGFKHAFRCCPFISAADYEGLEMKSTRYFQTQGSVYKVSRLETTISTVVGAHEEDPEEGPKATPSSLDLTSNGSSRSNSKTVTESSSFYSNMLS

In the case of CC(C)C[C@@H]1NC(=O)[C@@H](Cc2c[nH]c3ccccc23)NC(=O)[C@H](Cc2ccc(O)cc2)NC(=O)CNC(=O)[C@H](Cc2c[nH]c3ccccc23)NC(=O)[C@H](CCCNC(=N)N)NC1=O [cyclo[Tyr--trp--Leu--Arg--Trp--Gly], cyclo[Tyr-trp-Leu-Arg-Trp-Gly]] (cyclo(GY[dW]LRW)), the IC50 [1] is reported as 6190 ± 277 nM, the “ED50 (dose producing analgesia in 50% of the mice)” value [2] is reported as 0.18 µg and the IC50 [3] is reported as 6.79 ± 0.69 nM.
